Values belong to the molecule of their own block, whether it stands above or below them.
Columns and labels:
[1] = 25° C.; as quoted by NIST reference database 46; cited from earlier work
[2] = Size exclusion chromatography main peak of insulin lispro formulations after storage; assay type: physicochemical; conditions: insulin lispro 100 U/ml with 0.4 mM EDTA; 30° C. for 4 weeks
[3] = Visual assessment of insulin lispro (100 U/ml) formulations with 0.4 mM EDTA and different surfactants after storage; assay type: physicochemical; conditions: insulin lispro 100 U/ml with 0.4 mM EDTA; for effect of surfactant on precipitation: 30° C. for 4 weeks
Description: (§1) European Pharmacepoeia Monograph (Particulate Contamination: Visible Particles).
(§2) The presence of any particles is recorded.
The effect of different surfactants was tested on stability of insulin lispro (100 U/ml) in the presence of 0.4 mM EDTA. The visual assessment method described in General Methods was used.

[4] = Visual Assessment Scoring Method B, insulin aspart (100 U/ml) with trisodium citrate, L-histidine or pyrophosphate, storage at 30° C.; assay type: physicochemical
Description: as §1, §2
(§3) Visual Assessment Scoring Method B
(§4) Visual score 1: Clear solution, virtually free of particles
(§5) Visual score 2: ˜5 very small particles
(§6) Visual score 3: ˜10-20 very small particles
(§7) Visual score 4: 20-50 particles, including larger particles
(§8) Visual score 5: >50 particles, including larger particles

[5] = Visual Assessment Scoring Method B, insulin lispro (100 U/ml) with citric acid, storage at indicated temperatures; conditions: insulin lispro 100 U/ml with citric acid 22 mM
Description: The apparatus required consists of a viewing station comprising: • a matt black panel of appropriate size held in a vertical position • a non-glare white panel of appropriate size held in a vertical position next to the black panel • an adjustable lampholder fitted with a suitable, shaded, white-light source and with a suitable light diffuser (a viewing illuminator containing two 13 W fluorescent tubes, each 525 mm in length, is suitable).
Any adherent labels are removed from the container and the outside washed and dried. The container is gently swirled or inverted, ensuring that air bubbles are not introduced, and observed for about 5 s in front of the white panel. The procedure is repeated in front of the black panel. The presence of any particles is recorded.
Whilst the particles in samples with visual scores 4 and 5 are clearly detectable on casual visual assessment under normal light, samples with visual score 1-3 generally appear as clear solutions on the same assessment. Samples with visual scores 1-3 are considered to be “Pass”; samples with visual score 4-5 are considered to be “Fail”.
Stability of insulin lispro (100 U/ml) was investigated in formulations comprising citric acid (22 mM), both in the presence and in the absence of polysorbate 80.

[6] = Visual Assessment Scoring Method B, insulin aspart (1000 U/ml) with different concentrations of citric acid and polysorbate 80; assay type: physicochemical; conditions: insulin aspart 1000 U/ml with citric acid 44-88 mM
Description: as §1, §2, §3, §4, §5, §6, §7, §8
The stability of insulin aspart (1000 U/ml) was investigated in the presence of different concentrations of citric acid and different concentrations of polysorbate 80. […] Three concentrations of citric acid (44, 66 and 88 mM) and four concentrations of each non-ionic surfactant were tested as well as corresponding surfactant-free compositions.

[7] = Visual Assessment Scoring Method A, insulin aspart (100 U/ml) with 22 mM sodium citrate, storage at 30° C.; assay type: physicochemical
Description: as §1, §2
Visual Assessment Scoring Method A
Visual score 1: clear solution free of particles
Visual score 2: slight particle formation
Visual score 3: more significant precipitation

[8] = Visual Assessment Scoring Method B, insulin aspart (1000 U/ml) with trisodium citrate, L-histidine or pyrophosphate; assay type: physicochemical
Description: as §1, §2, §3, §4, §5, §6, §7, §8

Molecule: O=C(O)CN(CCN(CC(=O)O)CC(=O)O)CC(=O)O [EDTA, ethylenediaminetetraacetate]
log K metal binding stability constant with respect to zinc binding [1]: 14.5

Molecule: O=C(O)CN(CCOCCOCCN(CC(=O)O)CC(=O)O)CC(=O)O [EGTA, ethyleneglycoltetraacetate]
log K metal binding stability constant with respect to zinc binding [1]: 12.6

effect of surfactant on reduction in size of the main peak on SEC and RP-HPLC chromatograms [2]: did not prevent | effect of surfactant on precipitation [3]: prevented precipitation
Molecule: CCCCCCCCCCCCC[N+](C)(C)Cc1ccccc1 [benzalkonium chloride]

Molecule: CC(C)(C)CC(C)(C)c1ccc(OCCOCC[N+](C)(C)Cc2ccccc2)cc1 [benzethonium chloride]
effect of surfactant on reduction in size of the main peak on SEC and RP-HPLC chromatograms [2]: did not prevent | effect of surfactant on precipitation [3]: prevented precipitation

Molecule: O=C(O)CC(O)(CC(=O)O)C(=O)O [citrate]
log K metal binding stability constant with respect to zinc binding [1]: 4.93

effect of surfactant on reduction in size of the main peak on SEC and RP-HPLC chromatograms [2]: did not prevent | effect of surfactant on precipitation [3]: prevented precipitation
Molecule: CCCCCCCCCCCCO[C@@H]1O[C@H](CO)[C@@H](O[C@H]2O[C@H](CO)[C@@H](O)[C@H](O)[C@H]2O)[C@H](O)[C@H]1O [dodecyl maltoside]

Molecule: N[C@@H](Cc1c[nH]cn1)C(=O)O [histidine]
log K metal binding stability constant with respect to zinc binding [1]: 6.51

Molecule: O=P(O)(O)OP(=O)(O)O [pyrophosphate]
log K metal binding stability constant with respect to zinc binding [1]: 8.71

effect of surfactant on particle formation rate [4]: worse than that of polysorbate 80
Molecule: poloxamer 188
effect of surfactant on destabilising effect of citric acid [5]: notably weaker than that of polysorbate 80

Molecule: polyoxyethylene (20) sorbitan monolaurate [Polysorbate 20]
effect of surfactant on particle formation rate [4]: not effective at all | effect of surfactant on destabilising effect of citric acid [5]: notably weaker than that of polysorbate 80

effect of surfactant on particle formation rate [4]: stabilising effect | effect of surfactant on rate of particle formation [8]: stabilising effect
Molecule: polyoxyethylene (20) sorbitan monooleate [polysorbate 80]
effect of surfactant on destabilising effect of citric acid [5]: appeared to mitigate the destabilising effect | effect of surfactant on rate of particle formation [6]: reduction in the rate of particle formation | effect of surfactant on rate of particle formation [7]: considerable reduction in the rate of particle formation | stability after storage at 30° C. for 4 weeks ([3]; visual, SEC and RP-HPLC taken together): almost comparable with the EDTA-free control
